Test system: SCD transgenic mice
Experiment: Fetal hemoglobin in SCD transgenic mouse model, F-reticulocytes and F-RBCs by flow cytometry
Format: in vivo
Details: oral, 10 or 50 mg/kg BID daily, measured by flow cytometry
Excerpt: FIG. 2B depicts the effect of Compound A on fetal hemoglobin in the transgenic mouse model.

- % F-RBCs: dose dependent increases
- % F-reticulocytes: dose dependent increases
Structure (SMILES): CCc1c(C#N)c(SC(C(N)=O)c2ccccc2)nc(N(C)C)c1C#N (centres unmarked) [Compound A, 2-{[3,5-dicyano-6-(dimethylamino)-4-ethylpyridin-2-yl]sulfanyl}-2-phenylacetamide]

Reference: patent publication US10975056B2 (GlaxoSmithKline Intellectual Property Development Limited, priority 2016, dated 2021)
